Values quoted from earlier work, collected in US20150306063A1, “COMPOSITION AND METHOD FOR VAGINAL THERAPY” (priority 2014, published 2015).

Conditions: elderly patients, including patients older than 65 years of age

half-life in the elderly as compared with a younger population: only slightly prolonged
Compound: COc1ccccc1OCC(O)COC(N)=O (stereo not shown) [Methocarbamol, 3-(2-methoxyphenoxy)-1,2-propanediol 1-carbamate]
